We go through one compound from US20230026232A1, “AHR INHIBITORS AND USES THEREOF” (Ikena Oncology, Inc., priority 2019, published 2023).

Series [1] in a line: Phase 1 dose-escalation study: interim cohort pharmacokinetics. In kind it is in vivo, human. The conditions noted are these: Cycle 2 Day 1 (C2D1). As to the method: Serial blood samples are obtained to characterize the plasma PK of Compound A and its major active metabolites. The initial sampling strategy is based on the predicted human PK of this compound. If in the course of evaluating the PK, it is determined that an alternative sampling scheme would be more informative, then that alternative sampling scheme may be implemented if the total amount of blood and blood draws obtained for PK is not increased. Moreover, the total number of samples may be decreased at any time if the initial sampling scheme is considered unnecessarily intensive.
Interim cohort pharmacokinetics were assessed on parent (Compound A) and two active metabolites (Compound B and Compound C). […] Compound B metabolite ratio is increased on C2D1 in cohorts above 200 mg dosages. […] Without wishing to be bound or limited by theory, elimination rate limited kinetics likely contributing to the accumulation of Compound B through on-target inhibition of CYP1A1.

The test system of the next series is human T cell. Nature of the series: Human T cell assays: pro-inflammatory cytokines. In kind it is cell-based. The text has this: Compound A is a selective AHR antagonist being developed as an orally administered therapeutic. […] Compound A inhibits CYP1A1 and interleukin (IL)-22 gene expression and leads to an increase in pro-inflammatory cytokines, such as IL-2 and IL-9.

In series [2] the target is T1, AHR (Homo sapiens, UniProt P35869).
T1 sequence (P35869 11-848): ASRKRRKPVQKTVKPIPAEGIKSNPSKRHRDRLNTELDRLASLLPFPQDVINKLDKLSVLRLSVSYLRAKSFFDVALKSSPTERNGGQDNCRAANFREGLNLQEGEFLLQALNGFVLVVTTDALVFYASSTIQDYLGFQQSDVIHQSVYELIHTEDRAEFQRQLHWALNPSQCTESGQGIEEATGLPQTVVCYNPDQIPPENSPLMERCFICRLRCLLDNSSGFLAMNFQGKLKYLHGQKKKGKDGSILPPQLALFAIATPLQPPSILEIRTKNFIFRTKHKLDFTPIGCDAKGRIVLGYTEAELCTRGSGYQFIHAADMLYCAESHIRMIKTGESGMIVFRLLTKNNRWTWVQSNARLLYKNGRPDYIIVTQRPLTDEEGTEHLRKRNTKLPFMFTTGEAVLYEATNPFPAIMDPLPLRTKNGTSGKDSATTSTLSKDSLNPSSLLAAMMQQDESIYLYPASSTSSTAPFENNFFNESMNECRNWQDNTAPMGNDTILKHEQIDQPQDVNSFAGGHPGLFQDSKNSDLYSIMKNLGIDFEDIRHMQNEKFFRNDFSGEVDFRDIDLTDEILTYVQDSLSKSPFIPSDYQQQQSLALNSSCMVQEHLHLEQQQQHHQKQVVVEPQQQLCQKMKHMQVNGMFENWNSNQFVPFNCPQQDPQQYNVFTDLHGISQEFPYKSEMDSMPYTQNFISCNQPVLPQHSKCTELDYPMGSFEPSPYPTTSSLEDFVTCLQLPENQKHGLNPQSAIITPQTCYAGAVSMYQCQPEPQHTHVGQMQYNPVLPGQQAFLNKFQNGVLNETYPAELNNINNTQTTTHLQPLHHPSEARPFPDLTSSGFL
The series can be described thus: CYP1B1 gene expression in human whole blood ex vivo, basal and L-kynurenine-induced. The format is cell-based. The arrangement: endogenous in cells. The following applies: Compound A concentrations >0.5 μM, basal and 20 μM L-kynurenine activated, 24 hours, 2 donors. Here is the method:
To further examine the effects of Compound A on basal and ligand-activated AHR-dependent gene expression in human immune cells, blood samples from 2 healthy human donors were exposed ex vivo to Compound A in the presence or absence of 20 μM L-kynurenine to activate AHR. After 24 hours, cells were evaluated for CYP1B1 gene expression. In whole blood samples without AHR activation, basal levels of CYP1B1 expression were inhibited by Compound A treatment in both donors (FIG. 30A). […] In both donors, Compound A concentrations >0.5 μM inhibited CYP1B1 gene expression by greater than 50% under basal and ligand activated conditions.

The target of series [3] is T1, AHR. The series can be described thus: Phase 1 study: pharmacodynamic modulation of AHR target genes in a whole blood assay. The format is in vivo. The following applies: all subjects in the 200 mg, 400 mg, and 800 mg cohorts. More on the design: endogenous in cells. An excerpt:
Because the starting dose and any higher dose is expected to be near or at the pharmacologically active range, each subject is required to have blood drawn and tumor biopsies for secondary and exploratory pharmacodynamic endpoints. The blood and tumor tissue samples are used to confirm AHR target engagement. Individual subjects can be exempted from the tumor biopsy requirement upon discussion and prior agreement by the Sponsor. The initial sampling strategy is based on the predicted human pharmacodynamics of this compound. If in the course of evaluating the pharmacodynamics, it is determined that an alternative sampling scheme would be more informative, then that alternative sampling scheme can be implemented if the total amount of blood, blood draws, and tumor biopsies obtained for pharmacodynamics is not increased. Moreover, the total number of samples can be decreased at any time if the initial sampling scheme is considered unnecessarily intensive.
Pharmacodynamic (PD) modulation of AHR target genes were analyzed in a whole blood assay.

Each structure is given as a SMILES string.

On to `CC(C)c1cnn2c(N[C@@H]3CCc4[nH]c5ccccc5c4C3)nc(-c3cncc(F)c3)nc12` [Compound A, (R)—N-(2-(5-fluoropyridin-3-yl)-8-isopropylpyrazolo[1,5-a][1,3,5]triazin-4-yl)-2,3,4,9-tetrahydro-1H-carbazol-3-amine], for which the “dose proportionality of PK” value in series [1] is given as “greater than dose proportional”. The “pro-inflammatory cytokines, such as IL-2 and IL-9” value in the series on human T cell is given as “increase”. Also, at AHR [2], the “inhibition of CYP1B1 gene expression” value is on record as “greater than 50%”. The “inhibition of expression of AHR target gene CYP1B1” value against AHR [3] was “Robust inhibition”.
